Reference: patent US7008905B2, “Method of combating undesired plant growth on cereals” (BASF Aktiengesellschaft, priority 2000, dated 2006)

How the values were obtained:
Assay type in all cases: in vivo
[1] = tested on: barley; test: Pre-emergence test, tolerance in barley
Description: The pre-emergence tests involve spraying a liquid formulation of the compound onto the soil in which the seeds of the plant species mentioned above has recently been sown.
The soil used in the tests is a prepared horticultural loam. The formulations used in the tests are prepared from solutions of the test compounds in acetone containing 0.4% by weight of an alkylphenol/ethylene oxide condensate available under the trade mark TRITON X-155.
These acetone solutions are diluted with water and the resulting formulations applied at dosage levels corresponding to 15 g, 30 g, 60 g, 120 g or 240 g of active material per hectare in a volume equivalent to 900 liters per hectare. In these tests untreated sown soil is used as control. The herbicidal effects of the test compounds are assessed visually three weeks after spraying the soil and are recorded an a 0 to 100 scale. A rating 0 indicates growth as untreated control, a rating 100 indicates death. An increase of 10 unit an the linear scale approximates to a 10% increase in the level of effect. The results of the assessment are set out in Tables 1 to 4.

[2] = tested on: Triticum aestivum variety “Kanzler”; test: Pre-emergence test, selectivity; conditions: 3 weeks after treatment, rating 0-100 (100=death), Table 2
Outline: (§1)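 Herbicidal effect was scored visually on a 0–100 scale (100 = death, 0 = untreated-like) three weeks after treatment. Soil was horticultural loam sprayed just after sowing with aqueous-diluted acetone/0.4% TRITON X-155 formulations at 15–240 g a.i./ha (900 L/ha).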

[3] = tested on: HORVW; test: Pre-emergence test, selectivity; conditions: 3 weeks after treatment, rating 0-100 (100=death), Table 2
Outline: as §1

[4] = tested on: Hordeum vulgare variety “Mammut”; test: Pre-emergence test, selectivity; conditions: 3 weeks after treatment, rating 0-100 (100=death), Table 2
Outline: as §1

[5] = tested on: Triticum aestivum variety “Monopol”; test: Pre-emergence test, selectivity; conditions: 3 weeks after treatment, rating 0-100 (100=death), Table 2
Outline: as §1

[6] = tested on: wheat; test: Post-emergence test, tolerance in wheat
Description: (§2) These acetone solutions are diluted with water and the resulting formulations applied at dosage levels equivalent of about 0.030 to 0.240 kg per hectare of test compound per pot. After spraying the plants are placed an greenhouse benches and are cared for in the usual manner, commensurate with conventional greenhouse practices. From 2 to 4 weeks after treatment, the seedling plants are examined and rated according to the rating system provided above. A rating 0 indicates growth as untreated control, a rating 100 indicates death.

[7] = tested on: wheat; test: Pre-emergence test, tolerance in wheat
Outline: as §1

[8] = tested on: grasses and broadleaf weeds; test: Post-emergence test, overall weed control
Description: as §2

| Structure (SMILES) | dose at which sufficiently selective in barley [1] | TRZAWK rating (Selectivity) ([2]; 0.015 kg/ha) | TRZAWK rating (Selectivity) ([2]; 0.030 kg/ha) | TRZAWK rating (Selectivity) ([2]; 0.060 kg/ha) | TRZAWK rating (Selectivity) ([2]; 0.120 kg/ha) | TRZAWK rating (Selectivity) ([2]; 0.240 kg/ha) | HORVW rating (Selectivity) ([3]; 0.015 kg/ha) | HORVW rating (Selectivity) ([3]; 0.030 kg/ha) | HORVW rating (Selectivity) ([3]; 0.060 kg/ha) | HORVW rating (Selectivity) ([3]; 0.120 kg/ha) | HORVW rating (Selectivity) ([3]; 0.240 kg/ha) | HORVWM rating (Selectivity) ([4]; 0.015 kg/ha) | HORVWM rating (Selectivity) ([4]; 0.030 kg/ha) | HORVWM rating (Selectivity) ([4]; 0.060 kg/ha) | HORVWM rating (Selectivity) ([4]; 0.120 kg/ha) | HORVWM rating (Selectivity) ([4]; 0.240 kg/ha) | TRZAWM rating (Selectivity) ([5]; 0.030 kg/ha) | TRZAWM rating (Selectivity) ([5]; 0.060 kg/ha) | TRZAWM rating (Selectivity) ([5]; 0.120 kg/ha) | TRZAWM rating (Selectivity) ([5]; 0.240 kg/ha) | further results |
| --- | --- | --- | --- | --- | --- | --- | --- | --- | --- | --- | --- | --- | --- | --- | --- | --- | --- | --- | --- | --- | --- |
| Cc1cnc(-c2ccc(C(F)(F)F)cc2)nc1Oc1cccc(C(F)(F)F)c1 [REF-1] | did not exhibit acceptable tolerance in barley at any dose | 3 | 10 | 25 | 25 | 40 | 35 | 45 | 55 | 60 | 65 | 25 | 45 | 45 | 60 | 65 | 12 | 25 | 30 | 45 | TRZAWM rating (Selectivity) ([5]; 0.015 kg/ha): 3 |
| Cc1nc(-c2ccc(C(F)(F)F)cc2)nc(Oc2cccc(C(F)(F)F)c2)c1C [REF-2] | – | – | 1 | 1 | 1 | 5 | – | 10 | 10 | 20 | 30 | – | 3 | 5 | 18 | 25 | 1 | 1 | 2 | 5 | maximum tolerated dose in wheat / dose at which sufficiently selective in wheat ([6]; in vivo): similarly selective in wheat |
| CCc1cc(Oc2cccc(C(F)(F)F)c2)nc(-c2ccc(C(F)(F)F)cc2)n1 [REF-3] | – | 5 | 8 | 8 | 25 | 40 | 15 | 45 | 45 | 60 | 60 | 20 | 30 | 40 | 55 | 55 | 8 | 10 | 35 | 45 | maximum tolerated dose in wheat / dose at which sufficiently selective in wheat ([6]; in vivo): clearly less selective in wheat than TTP; maximum tolerated dose in wheat / dose at which sufficiently selective in wheat ([7]; in vivo): 60 g/ha; weed control at wheat selective doses [8]: incomplete; TRZAWM rating (Selectivity) ([5]; 0.015 kg/ha): 3 |
| FC(F)(F)c1ccc(-c2nccc(Oc3cccc(C(F)(F)F)c3)n2)cc1 [TTP, 4-(3-trifluoromethylphenoxy)-2-(4-trifluoromethyl-phenyl)-pyrimidine] | 15 g/ha | – | – | – | 3 | 10 | 10 | 25 | 30 | 50 | 55 | 5 | 22 | 30 | 40 | 45 | – | 1 | 5 | 15 | maximum tolerated dose in wheat / dose at which sufficiently selective in wheat ([6]; post-emergence): 240 g/ha; maximum tolerated dose in wheat / dose at which sufficiently selective in wheat ([7]; pre-emergence): 240 g/ha |
